The values that follow are results of earlier work, collected in patent publication US6803486B2, “Selective neuronal nitric oxide synthase inhibitors” (Northwestern University, priority 2001, dated 2004).

As usually defined, the Ki is the dissociation constant of the complex between target and ligand, obtained from inhibition or displacement.

Non-standard residues stand in square brackets, D forms with d. Residues, ends and D or L forms follow the SMILES beside them. dArg(NO2) = N=C(NCCC[C@@H](N)C(=O)O)N[N+](=O)[O-]

In one data set the target is T1, recombinant rat nNOS (Rattus norvegicus, UniProt P29476).
T1 construct: made in house; host or cells: E. coli
The conditions noted are these: cited from earlier work.

For another data set, the target named is T2, recombinant murine iNOS (Mus musculus, UniProt P29477).
T2 construct: made in house; host or cells: E. coli
The conditions noted are these: Table 2; data taken from ref 10; cited from earlier work.

In the next data set the target is recombinant bovine eNOS (Bos taurus, UniProt P29473). Also noted: made in house; host or cells: E. coli. The conditions noted are these: Table 2; data taken from ref 10; cited from earlier work.
[1] abbreviates: Table 2, data taken from ref 10.

`COC(=O)[C@@H](CCCN=C(N)N[N+](=O)[O-])NC(=O)[C@H](N)Cc1ccccc1` [D-Phe-D-Arg^NO2-OMe] (H-[dF]-[dArg(NO2)]-OMe): the results for the Ki on recombinant rat nNOS (setting [1]), at recombinant murine iNOS and at recombinant bovine eNOS were 2000 nM, 3.6 mM and 5 µM, respectively. In addition, on recombinant rat nNOS (setting [1]), the “Selectivity ENOS/nNOS” value is 2.5. Moreover, on recombinant rat nNOS (setting [1]), the “Selectivity iNOS/nNOS” value is listed as 1800. The “selectivity over iNOS” value at recombinant rat nNOS (prior art compound, nNOS over iNOS) was 1800 fold.
